# Reference: PubChem BioAssay AID256 (DTP/NCI, 2004)
# Several values for one entry are separate records, joined by “and”; a condition that tells them apart may be missing. Identical values can stand only once. Inconclusive results and toxic doses are left out. Non-standard residues stand in square brackets, D forms with d. Residues, ends and D or L forms follow the SMILES beside them. Ac5c = NC1(C(=O)O)CCCC1
# Test system: CD2F1 mice, L1210 leukemia ip, survival T/C
# Experiment: NCI In Vivo Anticancer Drug Screen. Data for tumor model L1210 Leukemia (intraperitoneal) in CD2F1 (CDF1) mice
# Settings: higher = longer survival
# How it was run: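 Antitumor effect is scored in animals hosting a serially transplanted tumor. Values compare compound-dosed animals against vehicle-only controls as a simple quotient.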
# [1] = endpoint: mean survival time, dose: 100.0 mg/kg/injection, schedule: Q01DX001 (ip), vehicle: saline with Tween-80
# [2] = endpoint: mean survival time, dose: 100.0 mg/kg/injection, schedule: Q04DX003 (ip), vehicle: saline
# [3] = endpoint: mean survival time, dose: 200.0 mg/kg/injection, schedule: Q04DX003 (ip), vehicle: saline
# [4] = endpoint: mean survival time, dose: 400.0 mg/kg/injection, schedule: Q04DX003 (ip), vehicle: saline
# [5] = endpoint: mean survival time, dose: 100.0 mg/kg/injection, schedule: Q04DX003 (ip), vehicle: saline with Tween-80
# [6] = endpoint: mean survival time, dose: 200.0 mg/kg/injection, schedule: Q04DX003 (ip), vehicle: saline with Tween-80
# [7] = endpoint: mean survival time, dose: 400.0 mg/kg/injection, schedule: Q04DX003 (ip), vehicle: saline with Tween-80
# [8] = endpoint: mean survival time, dose: 100.0 mg/kg/injection, schedule: Q01DX009 (ip), vehicle: saline with Tween-80
# [9] = endpoint: mean survival time, dose: 200.0 mg/kg/injection, schedule: Q01DX009 (ip), vehicle: saline with Tween-80
# [10] = endpoint: mean survival time, dose: 400.0 mg/kg/injection, schedule: Q01DX009 (ip), vehicle: saline with Tween-80
# [11] = endpoint: mean survival time, dose: 100.0 mg/kg/injection, schedule: Q04DX002 (ip), vehicle: saline with Tween-80
# [12] = endpoint: mean survival time, dose: 100.0 mg/kg/injection, schedule: Q01DX001 (ip), vehicle: saline
# [13] = endpoint: mean survival time, dose: 200.0 mg/kg/injection, schedule: Q01DX001 (ip), vehicle: saline
# [14] = endpoint: mean survival time, dose: 400.0 mg/kg/injection, schedule: Q01DX001 (ip), vehicle: saline
smiles,measurement,setting,value
CSC(=NC#N)N(C)C,T/C,"endpoint: mean survival time, dose: 25.0 mg/kg/injection, schedule: Q04DX003 (ip), vehicle: saline sonified",105 % of control
same,T/C,"endpoint: mean survival time, dose: 50.0 mg/kg/injection, schedule: Q04DX003 (ip), vehicle: saline sonified",95 % of control
same,T/C,[1],114 % of control
C1Cn2nnnc2N1,T/C,[2],103 % of control
same,T/C,[3],103 % of control
same,T/C,[4],94 % of control
CC(=O)OCC1OC(n2ccc(=O)[nH]c2=O)CC1N=[N+]=[N-] (centres undefined),T/C,"endpoint: median survival time, dose: 12.5 mg/kg/injection, schedule: Q01DX005 (ip), vehicle: saline with Tween-80",104 % of control
same,T/C,"endpoint: median survival time, dose: 25.0 mg/kg/injection, schedule: Q01DX005 (ip), vehicle: saline with Tween-80",107 % of control
same,T/C,"endpoint: median survival time, dose: 50.0 mg/kg/injection, schedule: Q01DX005 (ip), vehicle: saline with Tween-80",104 % of control
same,T/C,"endpoint: median survival time, dose: 100.0 mg/kg/injection, schedule: Q01DX005 (ip), vehicle: saline with Tween-80",101 % of control
same,T/C,"endpoint: median survival time, dose: 200.0 mg/kg/injection, schedule: Q01DX005 (ip), vehicle: saline with Tween-80",106 % of control
COc1c(O)c2c(c3cc(C(=O)N4CCc5c4c(O)c(OC)c4[nH]c(C(=O)N6CC7CC78C6=CC(=O)c6[nH]cc(C)c68)cc54)[nH]c13)CCN2C(N)=O (centres undefined),T/C,"endpoint: mean survival time, dose: 1.0 micrograms/kg/injection, schedule: Q01DX009 (ip), vehicle: other",116 % of control
same,T/C,"endpoint: mean survival time, dose: 4.4 micrograms/kg/injection, schedule: Q04DX003 (ip), vehicle: other",106 % of control
same,T/C,"endpoint: mean survival time, dose: 6.6 micrograms/kg/injection, schedule: Q04DX003 (ip), vehicle: other",104 % of control
same,T/C,"endpoint: mean survival time, dose: 10.0 micrograms/kg/injection, schedule: Q04DX003 (ip), vehicle: other",116 % of control
same,T/C,"endpoint: mean survival time, dose: 22.5 micrograms/kg/injection, schedule: Q04DX003 (ip), vehicle: other",122 % of control
same,T/C,"endpoint: mean survival time, dose: 30.0 micrograms/kg/injection, schedule: Q01DX009 (ip), vehicle: other",124 % of control
same,T/C,"endpoint: mean survival time, dose: 100.0 micrograms/kg/injection, schedule: Q04DX003 (ip), vehicle: other",101 % of control
CCCCCCOc1ccc(C=Nc2ccc(CC)cc2)cc1,T/C,[5],88 % of control
same,T/C,[6],91 % of control
same,T/C,[7],88 % of control
CCOC(=O)CC(COC)C(Br)(C(=O)OCC)C(=O)OCC (centres undefined),T/C,"endpoint: mean survival time, dose: 1.56 mg/kg/injection, schedule: Q01DX009 (ip), vehicle: Klucel (hydroxypropylcellulose) (HPC)",104 % of control
same,T/C,"endpoint: mean survival time, dose: 3.13 mg/kg/injection, schedule: Q01DX009 (ip), vehicle: Klucel (hydroxypropylcellulose) (HPC)",107 % of control
same,T/C,"endpoint: mean survival time, dose: 6.25 mg/kg/injection, schedule: Q01DX009 (ip), vehicle: Klucel (hydroxypropylcellulose) (HPC)",102 % of control
same,T/C,"endpoint: mean survival time, dose: 12.5 mg/kg/injection, schedule: Q01DX009 (ip), vehicle: Klucel (hydroxypropylcellulose) (HPC)",104 % of control
same,T/C,"endpoint: mean survival time, dose: 25.0 mg/kg/injection, schedule: Q01DX009 (ip), vehicle: Klucel (hydroxypropylcellulose) (HPC)",104 % of control
O=C1OC2CCCCC2c2ccccc21 (centres undefined),T/C,[5],98 % of control
same,T/C,[6],96 % of control
same,T/C,[7],98 % of control
CC(=O)OC1CCC2(C)C3CCC4(C)C(O)CCC4C3CC(O)C2(O)C1 (centres undefined),T/C,[5],90 % of control
same,T/C,[6],87 % of control
same,T/C,[7],91 % of control
NP(N)(=O)c1ccccc1,T/C,[2],94 % of control
same,T/C,[3],98 % of control
same,T/C,[4],94 % of control
NCC(=O)NC1(C(=O)O)CCCC1 (H-Gly-[Ac5c]-OH),T/C,"endpoint: mean survival time, dose: 62.5 mg/kg/injection, schedule: Q01DX001 (ip), vehicle: saline",87 % of control
same,T/C,"endpoint: mean survival time, dose: 62.5 mg/kg/injection, schedule: Q04DX003 (ip), vehicle: saline",107 % of control
same,T/C,"endpoint: mean survival time, dose: 125.0 mg/kg/injection, schedule: Q01DX001 (ip), vehicle: saline",91 % of control
same,T/C,"endpoint: mean survival time, dose: 125.0 mg/kg/injection, schedule: Q04DX003 (ip), vehicle: saline",107 % of control
same,T/C,"endpoint: mean survival time, dose: 250.0 mg/kg/injection, schedule: Q01DX001 (ip), vehicle: saline",112 % of control
same,T/C,"endpoint: mean survival time, dose: 500.0 mg/kg/injection, schedule: Q04DX003 (ip), vehicle: saline",152 % of control
CCc1ccccc1NC(=O)Nc1ccc(N(C)C(C)=O)cc1,T/C,[8],95 % of control
same,T/C,[9],93 % of control
same,T/C,[10],93 % of control
C/C(=N/O)c1cccc([N+](=O)[O-])c1,T/C,[8],95 % of control
same,T/C,[5],104 % of control
same,T/C,[9],98 % of control
same,T/C,[6],95 % of control
same,T/C,[7],103 % of control
O=C(/C=C/c1ccc(OCc2ccccc2)c(OCc2ccccc2)c1)OCc1ccccc1,T/C,"endpoint: mean survival time, dose: 25.0 mg/kg/injection, schedule: Q04DX002 (ip), vehicle: saline with Tween-80",102 % of control
same,T/C,"endpoint: mean survival time, dose: 50.0 mg/kg/injection, schedule: Q04DX002 (ip), vehicle: saline with Tween-80",91 % of control
same,T/C,[11],95 % of control
same,T/C,"endpoint: mean survival time, dose: 200.0 mg/kg/injection, schedule: Q04DX002 (ip), vehicle: saline with Tween-80",95 % of control
CC[C+](C)[B-][N+](C)(C)C,T/C,[12],93 % of control
same,T/C,[13],98 % of control
same,T/C,[14],100 % of control
O=c1cc[nH]c(=O)o1,T/C,"endpoint: mean survival time, dose: 42.0 mg/kg/injection, schedule: Q01DX009 (ip), vehicle: water",122 % of control
same,T/C,[5],114 % of control
same,T/C,[6],92 % of control
same,T/C,"endpoint: median survival time, dose: 63.0 mg/kg/injection, schedule: Q01DX009 (ip), vehicle: water",87 % of control
COC1=CCC2=C(CCO2)C1,T/C,"endpoint: mean survival time, dose: 100.0 mg/kg/injection, schedule: Q01DX009 (ip), vehicle: acetone",91 % of control
same,T/C,"endpoint: mean survival time, dose: 200.0 mg/kg/injection, schedule: Q01DX009 (ip), vehicle: acetone",98 % of control
same,T/C,"endpoint: mean survival time, dose: 400.0 mg/kg/injection, schedule: Q01DX009 (ip), vehicle: acetone",100 % of control
CC(C)c1oc(=O)cc2c1C(O)C1OC(=O)C3(C)C(O)C4OC4C2(C)C13 (centres undefined) (tested in a mixture with another compound),T/C,[11],105 % of control
NC(N)=NC(N)=Nc1cc(Cl)c(Cl)cc1Cl,T/C,[5],96 % of control
same,T/C,[6],96 % of control
same,T/C,[7],98 % of control
O=NN(CCCl)C(=O)/N=N/C(=O)N(CCCl)N=O,T/C,"endpoint: median survival time, dose: 3.12 mg/kg/injection, schedule: Q01DX001 (ip), vehicle: water",100 % of control
same,T/C,"endpoint: median survival time, dose: 6.25 mg/kg/injection, schedule: Q01DX001 (ip), vehicle: water",98 % of control
same,T/C,"endpoint: median survival time, dose: 12.5 mg/kg/injection, schedule: Q01DX001 (ip), vehicle: water",113 % of control
same,T/C,"endpoint: median survival time, dose: 25.0 mg/kg/injection, schedule: Q01DX001 (ip), vehicle: water",103 % of control and 105 % of control
same,T/C,"endpoint: median survival time, dose: 50.0 mg/kg/injection, schedule: Q01DX001 (ip), vehicle: water",98 % of control and 112 % of control
same,T/C,"endpoint: median survival time, dose: 100.0 mg/kg/injection, schedule: Q01DX001 (ip), vehicle: water",115 % of control (2×) and 122 % of control
CCCCN1C(=O)N(c2ccc(OCC)cc2)C2N(CCCC)C1C(C)(C)C2(C)C (centres undefined),T/C,[11],107 % of control
same,T/C,"endpoint: median survival time, dose: 7.5 mg/kg/injection, schedule: Q01DX005 (ip), vehicle: saline with Tween-80",107 % of control
same,T/C,"endpoint: median survival time, dose: 15.0 mg/kg/injection, schedule: Q01DX005 (ip), vehicle: saline with Tween-80",110 % of control
same,T/C,"endpoint: median survival time, dose: 30.0 mg/kg/injection, schedule: Q01DX005 (ip), vehicle: saline with Tween-80",101 % of control
same,T/C,"endpoint: median survival time, dose: 60.0 mg/kg/injection, schedule: Q01DX005 (ip), vehicle: saline with Tween-80",101 % of control
same,T/C,"endpoint: median survival time, dose: 120.0 mg/kg/injection, schedule: Q01DX005 (ip), vehicle: saline with Tween-80",113 % of control
CS(=O)(=O)Nc1ccc(CC#N)cc1,T/C,[8],98 % of control
same,T/C,[5],101 % of control
same,T/C,[9],101 % of control
same,T/C,[6],107 % of control
same,T/C,[10],102 % of control
same,T/C,[7],109 % of control
O=C(CN1C(=O)CCC1=O)NCCc1cccc(OCc2ccccc2)c1,T/C,[8],94 % of control
same,T/C,[5],97 % of control
same,T/C,[9],89 % of control
same,T/C,[6],97 % of control
same,T/C,[10],91 % of control
same,T/C,[7],97 % of control
Cc1ccc(C(=O)CCCCl)cc1C,T/C,[8],104 % of control
same,T/C,[9],96 % of control
same,T/C,[10],98 % of control
CC(=O)C(C)(C)C,T/C,"endpoint: mean survival time, dose: 100.0 mg/kg/injection, schedule: Q04DX002 (ip), vehicle: saline",96 % of control
same,T/C,"endpoint: mean survival time, dose: 200.0 mg/kg/injection, schedule: Q04DX002 (ip), vehicle: saline",104 % of control
same,T/C,"endpoint: mean survival time, dose: 400.0 mg/kg/injection, schedule: Q04DX002 (ip), vehicle: saline",104 % of control
CC12CCC(=O)C(I)(I)C1=CCCC2=O (centres undefined),T/C,[1],91 % of control
same,T/C,[8],88 % of control
same,T/C,[9],88 % of control
same,T/C,[10],87 % of control
O=NC1CCCCC1Cl (centres undefined),T/C,[12],96 % of control and 98 % of control and 93 % of control
same,T/C,[13],95 % of control and 102 % of control and 100 % of control
same,T/C,[14],101 % of control and 105 % of control
